“And” between values parts separate entries of the source, which are not always exact repeats. Equal values may be shown once.
Tested on: OVCAR-5 complex spheroids, viability
Test: Anticancer human tumor OVCAR-5 cell line growth inhibition;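 note: spheroids exposed to agents for seven days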;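 for viability, T/C: 100% = DMSO vehicle control wells viability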
Conditions: for viability, T/C: stronger effect = lower value; active = viability on the fitted dose curve at most 10% of control; inactive = the rest
Method in brief: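 Complex spheroids of tumor cells with HUVEC and human MSCs, exposed to iadademstat combined with other agents. Each agent tested in half-log steps from near clinical Cmax (else 10 microM top), DMSO ≤0.25%.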

[1] = curve of first compound, second compound 0.1 µM
[2] = curve of first compound, second compound 0.316 µM
[3] = curve of first compound, second compound 1 µM
[4] = curve of first compound, second compound 3.16 µM
[5] = curve of first compound, second compound 10 µM
[6] = second compound 0.1 µM, first compound 0.0316 µM
[7] = second compound 0.1 µM, first compound 0.1 µM
[8] = second compound 0.1 µM, first compound 0.316 µM
[9] = second compound 0.1 µM, first compound 1 µM
[10] = second compound 0.1 µM, first compound 3.16 µM
[11] = second compound 0.1 µM, first compound 10 µM
[12] = second compound 0.316 µM, first compound 0.0316 µM
[13] = second compound 0.316 µM, first compound 0.1 µM
[14] = second compound 0.316 µM, first compound 0.316 µM
[15] = second compound 0.316 µM, first compound 1 µM
[16] = second compound 0.316 µM, first compound 3.16 µM
[17] = second compound 0.316 µM, first compound 10 µM
[18] = second compound 1 µM, first compound 0.0316 µM
[19] = second compound 1 µM, first compound 0.1 µM
[20] = second compound 1 µM, first compound 0.316 µM
[21] = second compound 1 µM, first compound 1 µM
[22] = second compound 1 µM, first compound 3.16 µM
[23] = second compound 1 µM, first compound 10 µM
[24] = second compound 3.16 µM, first compound 0.0316 µM
[25] = second compound 3.16 µM, first compound 0.1 µM
[26] = second compound 3.16 µM, first compound 0.316 µM
[27] = second compound 3.16 µM, first compound 1 µM
[28] = second compound 3.16 µM, first compound 3.16 µM
[29] = second compound 3.16 µM, first compound 10 µM
[30] = second compound 10 µM, first compound 0.0316 µM
[31] = second compound 10 µM, first compound 0.1 µM
[32] = second compound 10 µM, first compound 0.316 µM
[33] = second compound 10 µM, first compound 1 µM
[34] = second compound 10 µM, first compound 3.16 µM
[35] = second compound 10 µM, first compound 10 µM
[36] = second compound 0.1 µM, first compound 0.00316 µM
[37] = second compound 0.1 µM, first compound 0.01 µM
[38] = second compound 0.316 µM, first compound 0.00316 µM
[39] = second compound 0.316 µM, first compound 0.01 µM
[40] = second compound 1 µM, first compound 0.00316 µM
[41] = second compound 1 µM, first compound 0.01 µM
[42] = second compound 3.16 µM, first compound 0.00316 µM
[43] = second compound 3.16 µM, first compound 0.01 µM
[44] = second compound 10 µM, first compound 0.00316 µM
[45] = second compound 10 µM, first compound 0.01 µM

CC1COCCN1c1cc(C2(S(C)(=N)=O)CC2)nc(-c2ccnc3[nH]ccc23)n1 (stereo unspecified) + NC1CCC(NC2CC2c2ccccc2)CC1
2530 nM: IC50 [1]
2200 nM: IC50 [5]
3030 nM: IC50 [3]
inactive: viability, T/C [6] 102% | viability, T/C [7] 116% | viability, T/C [8] 97.7% | viability, T/C [9] 69.9% | viability, T/C [10] 47.4% | viability, T/C [11] 35.6% | viability, T/C [12] 108% | viability, T/C [13] 103% | viability, T/C [14] 94.7% | viability, T/C [15] 70% | viability, T/C [16] 45.8% | viability, T/C [17] 37.2% | viability, T/C [18] 109% | viability, T/C [19] 99.5% | viability, T/C [20] 97.8% | viability, T/C [21] 70.9% | viability, T/C [22] 50.5% | viability, T/C [23] 36% | viability, T/C [24] 104% | viability, T/C [25] 106% | viability, T/C [26] 97% | viability, T/C [27] 70.2% | viability, T/C [28] 48.4% | viability, T/C [29] 37.1% | viability, T/C [30] 84% | viability, T/C [31] 82.4% | viability, T/C [32] 79.2% | viability, T/C [33] 61.3% | viability, T/C [34] 45.3% | viability, T/C [35] 34%
2700 nM: IC50 [4]
2620 nM: IC50 [2]

NS(=O)(=O)OCC1CC(n2ccc3c(NC4CCc5ccccc54)ncnc32)CC1O (stereo unspecified)
inactive: viability, T/C (compound 0.00949 µM) 105% and 120% | viability, T/C (compound 0.03 µM) 102% and 114% | viability, T/C (compound 0.0949 µM) 82.6% and 75.8% | viability, T/C (compound 0.3 µM) 37.4% and 25.6%
219 nM and 172 nM: IC50 (curve of compound)
9.41% and 4.92%: viability, T/C (compound 3 µM)
16.1% and 7.66%: viability, T/C (compound 0.949 µM)

COc1cc(C2c3cc4c(cc3C(OC3OC5COC(C)OC5C(O)C3O)C3COC(=O)C23)OCO4)cc(OC)c1O (stereo unspecified)
inactive: viability, T/C (compound 0.00949 µM) 108% and 107% | viability, T/C (compound 0.03 µM) 110% and 94.7% | viability, T/C (compound 0.0949 µM) 101% and 84.4% | viability, T/C (compound 0.3 µM) 69.6% and 60.9% | viability, T/C (compound 0.949 µM) 44% and 35.2% | viability, T/C (compound 3 µM) 39% and 33.6%
718 nM and 501 nM: IC50 (curve of compound)

CC1(C)CCC(CN2CCN(c3ccc(C(=O)NS(=O)(=O)c4ccc(NCC5CCOCC5)c([N+](=O)[O-])c4)c(Oc4cnc5[nH]ccc5c4)c3)CC2)=C(c2ccc(Cl)cc2)C1 + NC1CC1c1ccc(-c2cccc(O)c2)cc1
7370 nM: IC50 [3]
7610 nM: IC50 [4]
7760 nM: IC50 [2]
7570 nM: IC50 [5]
7440 nM: IC50 [1]
inactive: viability, T/C [6] 99.4% | viability, T/C [7] 97.3% | viability, T/C [8] 110% | viability, T/C [9] 97.2% | viability, T/C [10] 103% | viability, T/C [11] 32.1% | viability, T/C [12] 107% | viability, T/C [13] 112% | viability, T/C [14] 106% | viability, T/C [15] 101% | viability, T/C [16] 100% | viability, T/C [17] 35.6% | viability, T/C [18] 110% | viability, T/C [19] 92.4% | viability, T/C [20] 93.3% | viability, T/C [21] 105% | viability, T/C [22] 94.4% | viability, T/C [23] 33.7% | viability, T/C [24] 103% | viability, T/C [25] 86.9% | viability, T/C [26] 88.5% | viability, T/C [27] 106% | viability, T/C [28] 96% | viability, T/C [29] 35.7% | viability, T/C [30] 89.3% | viability, T/C [31] 85% | viability, T/C [32] 85.9% | viability, T/C [33] 86% | viability, T/C [34] 85% | viability, T/C [35] 38.9%

COc1cc(Nc2ncc3c(n2)-c2ccc(Cl)cc2C(c2c(F)cccc2OC)=NC3)ccc1C(=O)O + NC1CCC(NC2CC2c2ccccc2)CC1
> 1000 nM: IC50 [1] | IC50 [2] | IC50 [4] | IC50 [5]
inactive: viability, T/C [36] 103% | viability, T/C [37] 99.1% | viability, T/C [6] 83.5% | viability, T/C [7] 61% | viability, T/C [8] 64.1% | viability, T/C [9] 54.6% | viability, T/C [38] 94.5% | viability, T/C [39] 93.2% | viability, T/C [12] 78.4% | viability, T/C [13] 64% | viability, T/C [14] 57.3% | viability, T/C [15] 56.6% | viability, T/C [40] 87.3% | viability, T/C [41] 90.3% | viability, T/C [18] 80.2% | viability, T/C [19] 62.7% | viability, T/C [20] 59.8% | viability, T/C [21] 47.4% | viability, T/C [42] 83.6% | viability, T/C [43] 83.7% | viability, T/C [24] 75.2% | viability, T/C [25] 59.3% | viability, T/C [26] 60.7% | viability, T/C [27] 52.5% | viability, T/C [44] 83.5% | viability, T/C [45] 78.7% | viability, T/C [30] 79.7% | viability, T/C [31] 57.6% | viability, T/C [32] 55.8% | viability, T/C [33] 45.5%
999 nM: IC50 [3]

CC(C)CC(NC(=O)CNC(=O)c1cc(Cl)ccc1Cl)B1OC(=O)CC(CC(=O)O)(C(=O)O)O1 (stereo unspecified) + NC1CC1c1ccc(-c2cccc(O)c2)cc1
inactive: viability, T/C (second compound 0.1 µM, first compound 0.000316 µM) 92.4% | viability, T/C (second compound 0.1 µM, first compound 0.001 µM) 87% | viability, T/C [36] 89.8% | viability, T/C [37] 72.1% | viability, T/C [6] 66.2% | viability, T/C [7] 55% | viability, T/C (second compound 0.316 µM, first compound 0.000316 µM) 96.6% | viability, T/C (second compound 0.316 µM, first compound 0.001 µM) 92.1% | viability, T/C [38] 80.4% | viability, T/C [39] 73.3% | viability, T/C [12] 74.4% | viability, T/C [13] 57.5% | viability, T/C (second compound 1 µM, first compound 0.000316 µM) 98% | viability, T/C (second compound 1 µM, first compound 0.001 µM) 91.6% | viability, T/C [40] 79.3% | viability, T/C [41] 71.1% | viability, T/C [18] 66.8% | viability, T/C [19] 53.6% | viability, T/C (second compound 3.16 µM, first compound 0.000316 µM) 79.6% | viability, T/C (second compound 3.16 µM, first compound 0.001 µM) 78.7% | viability, T/C [42] 83.9% | viability, T/C [43] 65.8% | viability, T/C [24] 64.3% | viability, T/C [25] 51.8% | viability, T/C (second compound 10 µM, first compound 0.000316 µM) 97.1% | viability, T/C (second compound 10 µM, first compound 0.001 µM) 93.3% | viability, T/C [44] 71.4% | viability, T/C [45] 70.3% | viability, T/C [30] 64.8% | viability, T/C [31] 47%
99.8 nM: IC50 [5]
> 100 nM: IC50 [1] | IC50 [2] | IC50 [3] | IC50 [4]

CC1(C)CCC(CN2CCN(c3ccc(C(=O)NS(=O)(=O)c4ccc(NCC5CCOCC5)c([N+](=O)[O-])c4)c(Oc4cnc5[nH]ccc5c4)c3)CC2)=C(c2ccc(Cl)cc2)C1
7590 nM and 8360 nM: IC50 (curve of compound)
inactive: viability, T/C (compound 0.0316 µM) 98% and 105% | viability, T/C (compound 0.1 µM) 101% and 98.1% | viability, T/C (compound 0.316 µM) 95.8% and 105% | viability, T/C (compound 1 µM) 107% and 105% | viability, T/C (compound 3.16 µM) 107% and 103% | viability, T/C (compound 10 µM) 33.7% and 40.2%

O=C(c1cc(Cc2n[nH]c(=O)c3ccccc23)ccc1F)N1CCN(C(=O)C2CC2)CC1 + NC1CC1c1ccc(-c2cccc(O)c2)cc1
> 10000 nM: IC50 [1] | IC50 [2] | IC50 [3] | IC50 [4] | IC50 [5]
inactive: viability, T/C [6] 97.6% | viability, T/C [7] 112% | viability, T/C [8] 102% | viability, T/C [9] 88% | viability, T/C [10] 76.9% | viability, T/C [11] 74.9% | viability, T/C [12] 114% | viability, T/C [13] 104% | viability, T/C [14] 99.4% | viability, T/C [15] 93.7% | viability, T/C [16] 85.3% | viability, T/C [17] 73.8% | viability, T/C [18] 94.9% | viability, T/C [19] 105% | viability, T/C [20] 93.7% | viability, T/C [21] 81.2% | viability, T/C [22] 81.5% | viability, T/C [23] 72.3% | viability, T/C [24] 97.9% | viability, T/C [25] 86.9% | viability, T/C [26] 96.9% | viability, T/C [27] 83% | viability, T/C [28] 71% | viability, T/C [29] 65.5% | viability, T/C [30] 95.8% | viability, T/C [31] 87% | viability, T/C [32] 70.5% | viability, T/C [33] 81.9% | viability, T/C [34] 73.2% | viability, T/C [35] 60.2%

Reference: PubChem BioAssay AID1918956 (Molecular Pharmacology Branch, DTP, NCI, 2023)
